Where “and” joins values, the source holds several entries; their conditions need not be identical. Identical values can stand only once. Entries after “also recorded” stand apart in the source; their conditions may differ. Blank lines part the entries; values can stand above or below the compound they belong to.
Key:
[1] = tested on: P. falciparum (Dd2 strain); test: ABS P. falciparum growth inhibition, SYBR Green I assay, 72 h endpoint; assay type: cell-based, Plasmodium falciparum; conditions: for EC50: Plasmodium falciparum, DD2, Table 2, enantiopure, SYBR Green I, 72 h endpoint, average ± S.E.M, read-out: Dd2 strain P. falciparum growth inhibition EC50
Protocol: Parasites were maintained in O-positive human erythrocytes (Grifols, Memphis, TN, USA) at 5% hematocrit in RPMI 1640 medium supplemented with 5 g L^−1 Albumax I (Gibco Life Technologies), 2 g L^−1 glucose (Sigma-Aldrich), 2.3 g L^−1 sodium bicarbonate (Sigma-Aldrich), 370 μM hypoxanthine (Sigma-Aldrich), 25 mM HEPES, and 20 mg L^−1 gentamicin (Gibco Life Technologies). The parasites were kept at 37 °C under reduced-oxygen conditions (5% CO2, 5% O2, and 90% N2).
(§1) […]. MMV008138 (1) was used as control. The percentage of growth was normalized to that of untreated control parasites in the presence of 0.1% DMSO. Background determinations were made using uninfected erythrocytes. Two or more independent experiments in duplicate were performed. The EC50 values were calculated with GraphPad Prism 9 (GraphPad Software Ltd.) using nonlinear regression curve fitting with variable slope (four parameters) and represent the average and their standard error of the mean (S.E.M.). To assess whether 20a–e specifically targeted the apicoplast, the recovery of growth in the presence of inhibitor and isopentenyl diphosphate (IPP) was performed as described previously.[8] Briefly, parasites were grown in the presence or absence of 200 μM IPP along with a serial dilution (10 μM to 0.01 μM) or single concentration (10 or 20 μM) of drug. […] All conditions were set in 96-well half area plates using highly synchronous ring-stage parasite cultures (100 μL per well at 1% hematocrit and 1% parasitemia) and incubated for 72 h under normal culture conditions. Parasite growth was measured by the SYBR green I assay.

[2] = tested on: P. falciparum (Dd2 strain); test: Metabolic rescue of parasite growth by isopentenyl diphosphate (IPP) supplementation; assay type: cell-based, Plasmodium falciparum
Protocol: as §1

[3] = in vitro; conditions: female, CD-1, mouse, microsomes, pH 7.4
Protocol: Mouse microsomal stability of 20a, 20c, 20d was first assessed in our laboratory. […]
and coumarin were used as controls . Microsomal stability was assessed by ultra-performance liquid chromatography and high -resolution mass spectrometry […]
MA). Potassium phosphate monobasic, potassium phosphate dibasic, and coumarin were purchased from Sigma-Aldrich (St. Louis, MO). Briefly, compound incubations were carried out by the addition of mouse liver microsomes (0.5 mg/ml) in 0.05 M potassium phosphate buffer (pH 7.4), solution A and B, and preincubated at 37°C for 5 min. Control experiments were also carried out in the absence of NADPH solution A and B. Coumarin reaction was used as positive control. Reactions were terminated by adding acetonitrile. Sample analysis was performed on an IonKey/MS system composed of an ACQUITY UPLC M-Class, the ionKey source, and an iKey BEH C18 130 Å 1.7 µm 150 µm x 50 mm column coupled to a Synapt G2-Si mass spectrometer (Waters Corporation, Milford, MA, USA). Separation was accomplished using a binary gradient system consisting of 0.1% formic acid in water (mobile phase A) and 0.1% formic acid in acetonitrile (mobile phase B). The linear gradient was programmed as follows: 0-3 min 1% B, 3- […]
was 3 µL/min, the injection volume was 3 µL in full loop mode, and the iKey temperature was set at 40°C. MS analyses were performed acquiring in MSE mode from 80 to 1500 m/z in positive electrospray ionization mode with a capillary voltage of 3 kV. Data were collected in two channels all the time: low collision energy (6.0 V), for the molecular ions, and high collision energy (15-40 V), for product ions. The source temperature was set at 110°C. Leucine […]
scan at 20 s intervals. Infusion flow rate for lock mass was 1 μL/min. The microsomal stability was determined using MassLynx software (Waters Corporation, Milford, MA, USA). Relative amounts were calculated by comparing the peak area of each evaluated compound at time 0 minutes to its corresponding area at times 45, 90 and 180 minutes to return a ratio.

[4] = in vitro; conditions: male, mouse, microsomes; for % remaining, Replicate 1 / Replicate 2: 1 µM; for remaining at 0.5 min, 1 µM / remaining at 5 min, 1 µM / remaining at 10 min, 1 µM / remaining at 0.25 h, 1 µM / remaining at 20 min, 1 µM / remaining at 0.5 h, 1 µM: % remaining, Replicate 1 / Replicate 2
Protocol: Metabolic stability of 1 was studied in pooled male mouse liver microsomes (final concentration 0.5 mg/mL, 5 mM MgCl 2, 100 mM phosphate buffer). The final concentration of test […]
The mixture was pre-warmed 37°C for 5 min before addition of 50 μL of 10 mM NADPH solution at the final concentration of 1 mM and carried out at 37°C. 50 μL of ultra-pure H2O was used instead of NADPH solution in the […]
negative control. […] Drug […]
concentrations were determined using triple quad LC-MS (Table S5).
(§2) (1 picture or pasted object on this page, not shown here)

[5] = in vivo; conditions: mouse
Protocol: 3. Pharmacokinetics of 1 in mice
Pharmacokinetic analysis of 1 in mice was performed by Pharmaron (Beijing, China). Three mice each (23 ± 1 g) were used for oral (40 mg/kg, gavage, conscious) and for IV (10 mg/kg, lateral tail vein with anesthesia) administration. The vehicle for both routes wa s 20% DMSO, 60% PEG400 and 20% SBE-β-CD (30% w/v) in water. Stock concentrations were 4 mg/mL (both oral and IV respectively), and mice were dosed at 10.0 and 2.5 mL/kg (oral and IV respectively).
Quantitation was performed by triple-quad LC-MS.

[6] = tested on: Plasmodium berghei ANKA expressing luciferase (PbGFP-Luccon); test: In vivo efficacy in P. berghei-infected mice (luminescence on Day 7)
Protocol: 2. In vivo efficacy studies of 1 (NYU) in P. berghei-infected mice (po and iv) Efficacy of 1 in P. berghei-infected mice was assessed at the Anti-Infectives Core Facility, Department of Microbiology, Grossman School of Medicine, New York University.
A. Oral Administration Protocol
Three groups of five female Swiss Webster mice weighing 25 to 30 g were used for vehicle […]
berghei ANKA expressing luciferase (PbGFP-Luccon) obtained from a donor infected mouse.10 […]
2 to 6 and imaged on day 7.
Figure S1. Dosing and imaging timeline of P. berghei-infected mice. […]
Day 7 as described in the text.
The vehicle for all groups was 0.5% (hydroxypropyl)methyl cellulose, 0.5% Tween-80.
For the surviving mice, o n day 7 after infection, mice were anesthetized by inhalation of isofluorane and injected via i.p. with 150 mg/kg of luciferase substrate dissolved in PBS (D-Luciferin Potassium Salt , Gold Biotechnology ).
Mice were imaged 5 to 10 min after inj ection of luciferin using an IVIS imager (Lumina II In Vivo Imaging System; Perkin -Elmer). The data acquisition and analysis were performed with LivingImage (Xenogen). Accumulated light intensity was measured in each mouse to determine the baseline infection levels before treatment .
as §2
B. IV Administration Protocol
One group of four female Swiss Webster mice weighing 25 to 30 g were used for vehicle control, and groups of five mice were used for 1 treatment (IV, 2 x 30 mg/kg/d) and the positive […]
On Day 0, mice were infected via intraperitoneal (i.p.) […]
from a donor infected mouse. 10 As shown below in Figure S2 (and legend), mice were treated […]
Figure S2. Dosing and imaging timeline of P. berghei-infected mice. Vehicle and 1 (30 mpk) treatments were administered IV twice -daily on Days 2-6. […]
administered i .p. once-daily. Mice were imaged on Day 7, as described in the text.
The vehicle for this study was 30%PEG, 40% Captisol (30%w/v solution).
Table S2. Luminescence Data after background subtraction for IV dosing of Vehicle, 1, and IP […]
Table S9. Concentration of 20c vs time in mice. […]
Figure S6. Dosing and imaging timeline of P. berghei-infected mice. […]

[7] = iv, 10 mg/kg, plasma concentration
[8] = po, 40 mg/kg, plasma concentration
[9] = Table S10, 40 mg/kg 1 x daily PO Days 2-6, imaged Day 7

EC50 [1]: 451 ± 28 nM
half-life [3]: ~0.167 h
Compound: O=C(O)[C@@H]1Cc2c([nH]c3cccc(F)c23)[C@@H](c2ccc(Cl)cc2Cl)N1 [Compound 20a]
% recovery (200 μM IPP) ([2]; drug at 2.5 μM): 100%@2.5 μM

loss of growth inhibition potency (EC50) relative to 1 ([1]; Dd2 strain): ≤ 3 fold
EC50 [1]: 717 ± 73 nM
% remaining, Replicate 1 / Replicate 2 ([4]; 5 min): 56.5%
% remaining, Replicate 1 / Replicate 2 ([4]; 10 min): 41.8%
% remaining, Replicate 1 / Replicate 2 ([4]; 0.25 h): 31.5%
% remaining, Replicate 1 / Replicate 2 ([4]; 20 min): 28.2%
% remaining, Replicate 1 / Replicate 2 ([4]; 0.5 h): 25.1%
remaining at 0.5 min, 1 µM [4]: 100%
remaining at 5 min, 1 µM [4]: 61.1%
remaining at 10 min, 1 µM [4]: 42.6%
remaining at 0.25 h, 1 µM [4]: 34.3%
remaining at 20 min, 1 µM [4]: 30.3%
remaining at 0.5 h, 1 µM [4]: 24.8%
Compound: O=C(O)[C@@H]1Cc2c([nH]c3c(F)cccc23)[C@@H](c2ccc(Cl)cc2Cl)N1 [Compound 20d]
% recovery (200 μM IPP) ([2]; drug at 10 μM): 100%@10 μM

Compound: O=C(O)[C@@H]1Cc2c([nH]c3cc(F)ccc23)[C@@H](c2ccc(Cl)cc2Cl)N1 [Compound 20c]
EC50 [1]: 501 ± 47 nM
% recovery (200 μM IPP) ([2]; drug at 2.5 μM): 100%@2.5 μM
% remaining, Replicate 1 / Replicate 2 ([4]; 5 min): 105.2%
% remaining, Replicate 1 / Replicate 2 ([4]; 10 min): 105.5%
% remaining, Replicate 1 / Replicate 2 ([4]; 0.25 h): 100.5%
% remaining, Replicate 1 / Replicate 2 ([4]; 20 min): 100.4%
% remaining, Replicate 1 / Replicate 2 ([4]; 0.5 h): 85.7%
remaining at 0.5 min, 1 µM [4]: 100%
remaining at 5 min, 1 µM [4]: 90.9%
remaining at 10 min, 1 µM [4]: 91.4%
remaining at 0.25 h, 1 µM [4]: 84.7%
remaining at 20 min, 1 µM [4]: 85.9%
remaining at 0.5 h, 1 µM [4]: 95.2%
AUC(0-inf) ([5]; iv, 10 mg/kg): 49.6 µM·h
AUC(0-t) ([5]; iv, 10 mg/kg): 48.7 µM·h
C0 ([5]; iv, 10 mg/kg): 34.5 µM
clearance ([5]; iv, 10 mg/kg): 8.85 mL/min/kg
tlast ([5]; iv, 10 mg/kg): 24 h
concentration at 24 h ([5]; iv, 10 mg/kg, Cmin): 0.1 ± 0.1 µM
concentration at 0.083 h [5, 7]: 33.3 µM
concentration at 0.25 h [5, 7]: 30.9 ± 4 µM
concentration at 0.5 h [5, 7]: 14.4 ± 4.1 µM
concentration at 1 h [5, 7]: 9.7 ± 2 µM
concentration at 2 h [5, 7]: 3.3 ± 1.5 µM
concentration at 4 h [5, 7]: 1.4 ± 0.4 µM
concentration at 8 h [5, 7]: 1.4 ± 0.3 µM
concentration at 24 h [5, 7]: 0.1 ± 0.1 µM
half-life ([5]; iv, 10 mg/kg, t1/2): 4.96 h
AUC0-inf ([5]; po, 40 mg/kg): 114 µM·h
AUC(0-inf) ([5]; po, 40 mg/kg): 114 µM·h
AUC(0-t) ([5]; po, 40 mg/kg): 110 µM·h
Cmax ([5]; po, 40 mg/kg): 19.9 ± 8.1 µM
Tmax ([5]; po, 40 mg/kg): 0.5 h
oral AUC0-inf higher than that of 1 ([5]; po, 40 mg/kg): 30%
tlast ([5]; po, 40 mg/kg): 24 h
bioavailability ([5]; po, 40 mg/kg, % F): 58%
bioavailability ([5]; po, 40 mg/kg, %F): 57.8%
concentration at 24 h ([5]; po, 40 mg/kg, Cmin): 0.6 ± 0.6 µM
concentration at 0.25 h [5, 8]: 19.8 ± 8.1 µM
concentration at 0.5 h [5, 8]: 19.9 ± 3.2 µM
concentration at 1 h [5, 8]: 13.9 ± 10.8 µM
concentration at 2 h [5, 8]: 8.8 ± 5.9 µM
concentration at 4 h [5, 8]: 10 ± 3.7 µM
concentration at 8 h [5, 8]: 3.9 ± 0.7 µM
concentration at 24 h [5, 8]: 0.6 ± 0.06 µM
half-life ([5]; po, 40 mg/kg, t 1/2): 5.2 h
half-life ([5]; po, 40 mg/kg, t1/2): 5.17 h
reduction of luminescence relative to vehicle control ([6]; 40 mg/kg po Days 2-6, Day 7): did not reduce luminescence
reduction in parasitemia / efficacy ([6]; P. berghei mouse model, oral dosing (20c 5 × 40 mg per kg per day)): no reduction in parasitemia; also recorded: not efficacious
Luminescence after background subtraction AVG [6, 9]: 9.7E+06
Luminescence after background subtraction, individual mice [6, 9]: 6.51E+05 and 2.35E+06 and 3.10E+06 and 4.05E+05 and 1.33E+06

— PMC12378621, “Benzo-ring modification on Malaria Box hit MMV008138: effects on antimalarial potency and microsomal stability” (RSC Medicinal Chemistry, 2025)
